# Target: T1, human full-length MKNK1 (Homo sapiens, UniProt Q9BUB5, T385D)
# T1 construct: purchased Carna Biosciences 02-145; host or cells: insect cells, baculovirus expression system
# Experiment: MKNK1 kinase high ATP assay (TR-FRET)
# Type: biochemical
# Settings: high ATP (2 mM), 15 min preincubation with enzyme, GST-MKNK1 (T344D)
# Outline: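 GST-tagged full-length human MKNK1 (aa 1-424, T344D), baculovirus-expressed, preincubated 15 min with compound, then reacted 30 min at 22 °C with 2 mM ATP and 0.06 µM biotinylated peptide (final).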
# T1 sequence (Q9BUB5 1-424 isoform Q9BUB5-2 T344D): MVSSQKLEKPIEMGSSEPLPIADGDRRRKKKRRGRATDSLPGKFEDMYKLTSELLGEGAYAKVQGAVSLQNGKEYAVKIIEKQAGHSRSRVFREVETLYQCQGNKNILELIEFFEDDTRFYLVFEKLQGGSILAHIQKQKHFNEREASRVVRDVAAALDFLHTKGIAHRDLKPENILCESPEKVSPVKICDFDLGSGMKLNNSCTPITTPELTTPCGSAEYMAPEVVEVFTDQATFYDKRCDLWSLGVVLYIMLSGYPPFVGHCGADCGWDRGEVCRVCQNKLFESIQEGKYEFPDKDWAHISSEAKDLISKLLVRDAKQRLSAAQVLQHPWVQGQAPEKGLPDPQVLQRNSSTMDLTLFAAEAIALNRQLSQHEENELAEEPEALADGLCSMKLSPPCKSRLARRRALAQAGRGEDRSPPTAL
row,Structure (SMILES),IC50 [nM]
1,COc1ccc(Br)cc1Nc1ncnc2[nH]c3c(c12)CCCC3 [Example 128],313
2,Nc1ccc2c(c1)N(c1ncnc3[nH]c4c(c13)CCCC4)CC2 [Example 111],1100
3,"Cc1nc2c(Nc3ncnc4[nH]c5c(c34)CC(C(=O)NCCCS(C)(=O)=O)CC5)cccc2[nH]1 (racemic) [Example 169, (RS)-4-[(2-Methyl-1H-benzimidazol-4-yl)amino]-N-[3-(methylsulfonyl)propyl]-6,7,8,9-tetrahydro-5H-pyrimido[4,5-b]indole-6-carboxamide]",2700
4,"CS(=O)(=O)CCCNC(=O)C1CCc2[nH]c3ncnc(Nc4ccc(F)c5[nH]c(=O)ccc45)c3c2C1 (racemic) [Example 82, (RS)-4-[(8-Fluoro-2-oxo-1,2-dihydroquinolin-5-yl)amino]-N-[3-(methylsulfonyl)propyl]-6,7,8,9-tetrahydro-5H-pyrimido[4,5-b]indole-6-carboxamide]",10500
5,"CS(=O)(=O)CCCNC(=O)C1CCc2[nH]c3ncnc(Nc4ccc(F)c(OC(F)(F)F)c4)c3c2C1 (racemic) [Example 43, (RS)-4-{[4-Fluoro-3-(trifluoromethoxy)phenyl]amino}-N-[3-(methylsulfonyl)propyl]-6,7,8,9-tetrahydro-5H-pyrimido[4,5-b]indole-6-carboxamide]",782
6,"CC(C)Oc1cc(F)ccc1Nc1ncnc2c1c1c(n2C)CCC(C(=O)NCCCS(C)(=O)=O)C1 (racemic) [Example 25, (RS)-4-[(4-Fluoro-2-isopropoxyphenyl)amino]-9-methyl-N-[3-(methylsulfonyl)propyl]-6,7,8,9-tetrahydro-5H-pyrimido[4,5-b]indole-6-carboxamide]",381
7,"c1ccc(CN2CCc3[nH]c4ncnc(Nc5ccc6[nH]ncc6c5)c4c3C2)cc1 [Example 24, 6-Benzyl-N-(1H-indazol-5-yl)-6,7,8,9-tetrahydro-5H-pyrido[3′,4′:4,5]pyrrolo[2,3-d]pyrimidin-4-amine]",367
8,"CCOC(=O)C1CCc2[nH]c3ncnc(Nc4ccc(F)cc4OC(C)C)c3c2C1 (racemic) [Example 174, (RS)-Ethyl 4-{[4-fluoro-2-(propan-2-yloxy)phenyl]amino}-6,7,8,9-tetrahydro-5H-pyrimido[4,5-b]indole-6-carboxylate]",706
9,c1ccc2c(c1)CCN2c1ncnc2[nH]c3c(c12)CCCC3 [Example 120],8350
10,COCC1(OC)CCc2[nH]c3ncnc(Nc4ccc5[nH]c(=O)sc5c4)c3c2C1 (racemic) [Example 138],358
11,"CC(C)Oc1cc(F)ccc1Nc1ncnc2[nH]c3c(c12)CN(Cc1ccccc1)CC3 [Example 8, 6-Benzyl-N-(4-fluoro-2-isopropoxyphenyl)-6,7,8,9-tetrahydro-5H-pyrido[3′,4′:4,5]pyrrolo[2,3-d]pyrimidin-4-amine]",2940

# Now those with a lower IC50, led by results:
row,IC50 [nM],Structure (SMILES)
1,43,"CC(C)Oc1cc(F)ccc1Nc1ncnc2[nH]c3c(c12)CCCC3 [Example 1, N-(4-Fluoro-2-isopropoxyphenyl)-6,7,8,9-tetrahydro-5H-pyrimido[4,5-b]indol-4-amine]"
2,55,"O=c1[nH]c2cc(Cl)c(Nc3ncnc4[nH]c5c(c34)CCCC5)cc2s1 [Example 236, 5-Chloro-6-(6,7,8,9-tetrahydro-5H-pyrimido[4,5-b]indol-4-ylamino)-1,3-benzothiazol-2(3H)-one]"
3,192,"[O-][S+]1CCc2[nH]c3ncnc(Nc4ccc5[nH]ncc5c4)c3c2C1 (racemic) [Example 85, (RS)—N-(1H-Indazol-5-yl)-5,7,8,9-tetrahydrothiopyrano[3′,4′:4,5]pyrrolo[2,3-d]pyrimidin-4-amine 6-oxide]"
4,8,"CC(C)Oc1cc(F)ccc1Nc1ncnc2[nH]c3c(c12)CC(C(=O)NCCCS(C)(=O)=O)CC3 (racemic) [Example 28, (RS)-4-{[4-Fluoro-2-(propan-2-yloxy)phenyl]amino}-N-[3-(methylsulfonyl)propyl]-6,7,8,9-tetrahydro-5H-pyrimido[4,5-b]indole-6-carboxamide]"
5,89,"c1ccc(OC2CCOCC2)c(Nc2ncnc3[nH]c4c(c23)CCCC4)c1 [Example 130, N-[2-(tetrahydro-2H-pyran-4-yloxy)phenyl]-6,7,8,9-tetrahydro-5H-pyrimido[4,5-b]indol-4-amine]"
6,123,"O=C(O)CNC(=O)C1CCc2[nH]c3ncnc(Nc4ccc(F)cc4OCCO)c3c2C1 (racemic) [Example 187, (RS)—N-[(4-{[4-Fluoro-2-(2-hydroxyethoxy)phenyl]amino}-6,7,8,9-tetrahydro-5H-pyrimido[4,5-b]indol-6-yl)carbonyl]glycine]"
7,174,"CCOC(=O)C1CCc2[nH]c3ncnc(Nc4ccc(F)cc4OCCO)c3c2C1 (racemic) [Example 176, (RS)-Ethyl 4-{[4-fluoro-2-(2-hydroxyethoxy)phenyl]amino}-6,7,8,9-tetrahydro-5H-pyrimido[4,5-b]indole-6-carboxylate]"
